Target: T1, biotinylated human IL-17 (binding to IL17R/Fc) (Homo sapiens, UniProt Q16552)
T1 construct: purchased R&D Systems 317-ILB (IL-17, biotinylated); 177-IR (IL17R/Fc)
T1 sequence (Q16552 20-155 limits assumed): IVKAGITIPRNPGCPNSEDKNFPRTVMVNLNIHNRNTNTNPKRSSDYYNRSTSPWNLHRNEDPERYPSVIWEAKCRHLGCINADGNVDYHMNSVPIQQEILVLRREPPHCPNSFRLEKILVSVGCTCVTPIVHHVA
Experiment: IL-17 competition ELISA II (captured IL17R/Fc, biotinylated IL-17)
In short: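 Anti-human IgG-coated plates captured IL17R/Fc (10 nM), then compound (5-fold dilutions from 1 μM) and biotinylated human IL-17 (20 nM stock) were added for 30 min at room temperature in PBST. Bound IL-17 detected by streptavidin-HRP/TMB at 450 nm. IC50 from 4-parameter logistic fit between no-competitor and blank controls.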

Row | Compound | IC50 [nM]
1 | C[C@H]1NC(=O)[C@@H](Cc2ccc(NC(=O)[C@H](Cc3ccccc3Cl)NC(=O)[C@H](O)c3ccccc3)cc2)NC(=O)CC2(CCCC2)CC(=O)N(C)CCOCCN(C)C1=O [Compound 583] | < 100
2 | CN1CCOCCOCCN(C)C(=O)[C@@H](Cc2ccc(NC(=O)[C@H](Cc3ccccc3Cl)NC(=O)Cc3ccccc3)cc2)NC(=O)CC2(CCCC2)CC1=O [Compound 589] | < 100
3 | CNC(=O)N[C@@H](Cc1ccccc1Cl)C(=O)Nc1ccc(C[C@H]2NC(=O)CC3(CCCC3)CC(=O)NCCOCCOCCNC2=O)cc1 [Compound 464] | < 100
4 | CN1CCOCCOCCNC(=O)[C@@H](Cc2ccc(NC(=O)[C@@H](NC(=O)C(F)(F)c3ccccc3)C3CCCCC3)cc2)NC(=O)CC2(CCCC2)CC1=O [Compound 611] | < 100
5 | CCOC(=O)N[C@@H](Cc1ccccc1Cl)C(=O)Nc1ccc(C[C@H]2NC(=O)CC3(CCCC3)CC(=O)NCCOCCOCCNC2=O)cc1 [Compound 579] | < 100
6 | O=C1CC2(CCCC2)CC(=O)N[C@H](Cc2ccc(NC(=O)[C@H](Cc3ccccc3Cl)NC(=O)Cc3ccc(CO)cc3)cc2)C(=O)NCCOCCN1 [Compound 400] | < 100
7 | O=C1CC2(CCCC2)CC(=O)N[C@H](Cc2ccc(NC(=O)[C@H](Cc3ccccc3Cl)NC(=O)Oc3ccc(F)cc3)cc2)C(=O)NCCOCCOCCN1 [Compound 572] | < 100
8 | O=C1CNC(=O)[C@@H](Cc2ccc(NC(=O)[C@@H](NC(=O)C(F)(F)c3ccccc3)C3CCCCC3)cc2)NC(=O)CC2(CCCC2)CC(=O)OCCCCCN1 [Compound 671] | < 100
9 | CN1CCOCCOCCNC(=O)[C@@H](Cc2ccc(NC(=O)[C@H](CC3CCC3)NC(=O)C(F)(F)c3ccccc3)cc2)NC(=O)CC2(CCCC2)CC1=O [Compound 615] | < 100
10 | C[C@H]1NC(=O)[C@@H](Cc2ccc(NC(=O)[C@H](Cc3ccccc3Cl)NC(=O)Cc3ccc(F)cc3)cc2)NC(=O)CC2(CCCC2)NC(=O)CCCCCCCNC1=O [Compound 619] | < 100
11 | C[C@H]1NC(=O)[C@@H](Cc2ccc(NC(=O)[C@H](Cc3ccccc3Cl)NC(=O)C(F)(F)c3ccccc3)cc2)NC(=O)CC2(CCCC2)CC(=O)NCCN2CCN(CC2)C1=O [Compound 533] | 100 to 1000
12 | CN1CCCCCNC(=O)[C@@H]2CCCN2C(=O)[C@@H](Cc2ccc(NC(=O)[C@H](Cc3ccccc3)N(C)C(=O)c3ccccc3)cc2)N(C)C(=O)CC2(CCCC2)CC1=O [Compound 383] | 1000 to 10000
13 | CC(O)[C@H]1NC(=O)[C@@H](Cc2ccc(NC(=O)[C@@H](NC(=O)C(F)(F)c3ccccc3)C3CCCCC3)cc2)NC(=O)CC2(CCCC2)CC(=O)N(C)CCOCCN(C)C1=O (stereo partly drawn) [Compound 655] | < 100
14 | CN(C)CC[C@H]1NC(=O)[C@@H](Cc2ccc(NC(=O)[C@H](Cc3ccccc3Cl)NC(=O)C(F)(F)c3ccccc3)cc2)NC(=O)CC2(CCCC2)CC(=O)N(C)CCOCCN(C)C1=O [Compound 642] | < 100
15 | O=C1CC2(CCCC2)CC(=O)N[C@H](Cc2ccc(NC(=O)[C@@H](NC(=O)c3cccnc3)C3CCCCC3)cc2)C(=O)NCC#CCCCCCN1 [Compound 458] | 1000 to 10000
16 | CN1CCCCCN(C)C(=O)[C@@H](Cc2ccccn2)NC(=O)[C@@H](Cc2ccc(NC(=O)[C@H](Cc3ccccc3Cl)NC(=O)Cc3ccc(F)cc3)cc2)NC(=O)CC2(CCCC2)CC1=O [Compound 524] | < 100
17 | O=C1CNC(=O)[C@@H](Cc2ccc(NC(=O)[C@@H](NC(=O)Cc3c(F)cc(F)cc3F)C3CCCCC3)cc2)NC(=O)CC2(CCCC2)CC(=O)NCCCCCN1 [Compound 404] | < 100
18 | O=C1CC2(CCCC2)CC(=O)N[C@H](Cc2ccc(NC(=O)[C@H](Cc3ccccc3Cl)NC(=O)C(F)(F)c3ccccc3)cc2)C(=O)NCCN2CCN(CCN1)CC2 [Compound 531] | 100 to 1000
19 | CN1CCCCCN(C)C(=O)[C@@H](CC(N)=O)NC(=O)[C@@H](Cc2ccc(NC(=O)[C@H](Cc3ccccc3Cl)NC(=O)C(F)(F)c3ccccc3)cc2)NC(=O)CC2(CCCC2)CC1=O [Compound 669] | < 100
20 | C[C@H]1NC(=O)[C@@H](Cc2ccc(NC(=O)[C@H](Cc3ccccc3Cl)NC(=O)Cc3ccc(F)cc3)cc2)NC(=O)CC2(CCCC2)CC(=O)NCCN2CCN(CC2)C1=O [Compound 534] | < 100
21 | CN(C)c1ccc(CC(=O)N[C@H](C(=O)Nc2ccc(C[C@H]3NC(=O)CC4(CCCC4)CC(=O)NCCCCCCCCNC3=O)cc2)C2CCCCC2)cc1 [Compound 599] | < 100
22 | CN1CCOCCOCCNC(=O)[C@@H](Cc2ccc(NC(=O)[C@@H](NC(=O)Cc3ccc(N(C)C)cc3)C3CCCCC3)cc2)NC(=O)CC2(CCCC2)CC1=O [Compound 640] | < 100
23 | C[C@H]1NC(=O)[C@@H](Cc2ccc(NC(=O)[C@@H](NC(=O)C(F)(F)c3ccccc3)C3Cc4ccccc4C3)cc2)NC(=O)CC2(CCCC2)CC(=O)N(C)CCCCCN(C)C1=O [Compound 631] | < 100
24 | O=C1CC2(CCCC2)CC(=O)OCCCCCNC(=O)[C@@H](Cc2ccc(NC(=O)[C@@H](NC(=O)c3cccnc3)C3CCCCC3)cc2)N1 [Compound 423] | 1000 to 10000
25 | CN1CCCC/C=C/CNC(=O)[C@@H](Cc2ccc(NC(=O)[C@H](Cc3ccccc3Cl)NC(=O)Cc3ccc(F)cc3)cc2)NC(=O)CC2(CCCC2)CC1=O [Compound 447] | < 100
26 | CN1CCNC(=O)CC2(CCCC2)CC(=O)N[C@H](Cc2ccc(NC(=O)[C@H](Cc3ccccc3Cl)NC(=O)Cc3ccc(CO)cc3)cc2)C(=O)NCC1 [Compound 402] | < 100
27 | CN1CCOCCOCCNC(=O)[C@@H](Cc2ccc(NC(=O)[C@H](CC3CCCCC3)NC(=O)C(F)(F)c3ccccc3)cc2)NC(=O)CC2(CCCC2)CC1=O [Compound 613] | < 100
28 | COC(=O)N[C@@H](Cc1ccccc1Cl)C(=O)Nc1ccc(C[C@H]2NC(=O)CC3(CCCC3)CC(=O)N(C)CCN(C)CCN(C)C(=O)[C@@H](C)NC2=O)cc1 [Compound 588] | < 100
29 | COC(=O)N[C@H](C(=O)Nc1ccc(C[C@H]2NC(=O)CC3(CCCC3)CC(=O)NCCOCCOCCNC2=O)cc1)C1CCCCC1 [Compound 632] | 100 to 1000
30 | CN1CCCCCOC(=O)CC2(CCCC2)CC(=O)N[C@H](Cc2ccc(NC(=O)[C@H](Cc3ccccc3Cl)NC(=O)C(F)(F)c3ccccc3)cc2)C(=O)NCC1=O [Compound 678] | < 100

The next lines start with the values.

Row | IC50 [nM] | Compound
31 | < 100 | O=C1CC2(CCCC2)CC(=O)N[C@H](Cc2ccc(NC(=O)[C@H](Cc3ccccc3Cl)NC(=O)Cc3ccccc3)cc2)C(=O)NCCOCCN1 [Compound 397]
32 | < 100 | O=C1CC2(CCCC2)CC(=O)N[C@H](Cc2ccc(NC(=O)[C@H](Cc3ccccc3Cl)NC(=O)Cc3ccccc3)cc2)C(=O)NCCCN1 [Compound 398]
33 | < 100 | COC(=O)[C@@H]1CCCCNC(=O)CNC(=O)[C@@H](Cc2ccc(NC(=O)[C@H](Cc3ccccc3Cl)NC(=O)NCc3ccccc3)cc2)NC(=O)CC2(CCCC2)CC(=O)N1 [Compound 459]
34 | < 100 | NCCCC[C@H]1NC(=O)[C@@H](Cc2ccc(NC(=O)[C@H](Cc3ccccc3Cl)NC(=O)Cc3ccccc3)cc2)NC(=O)CC2(CCCC2)CC(=O)NCCCCCNC1=O [Compound 432]
35 | < 100 | CC(C)OC(=O)N[C@@H](Cc1ccccc1Cl)C(=O)Nc1ccc(C[C@H]2NC(=O)CC3(CCCC3)CC(=O)NCCCCCNC(=O)[C@@H](C)NC2=O)cc1 [Compound 578]
36 | < 100 | O=C1CNC(=O)[C@@H](Cc2ccc(NC(=O)[C@@H](NC(=O)c3cncc4ccccc34)C3CCCCC3)cc2)NC(=O)CC2(CCCC2)CC(=O)NCCCCCN1 [Compound 450]
37 | 100 to 1000 | O=C1CNC(=O)[C@@H](Cc2ccc(NC(=O)[C@@H](NC(=O)Cc3ccccc3)c3ccccc3)cc2)NC(=O)CC2(CCCC2)CC(=O)NCCCCCN1 [Compound 415]
38 | < 100 | O=C1CC2(CCCC2)CC(=O)N[C@H](Cc2ccc(NC(=O)[C@H](Cc3ccccc3Cl)NC(=O)Cc3cccc(O)c3)cc2)C(=O)NCCNCCN1 [Compound 466]
39 | < 100 | O=C1CC2(CCCC2)CC(=O)N[C@H](Cc2ccc(NC(=O)[C@H](Cc3ccccc3Cl)NC(=O)Cc3ccc(F)cc3)cc2)C(=O)NCCCC[C@@H](C(=O)O)N1 [Compound 460]
40 | < 100 | O=C1CC2(CCCC2)CC(=O)N[C@H](Cc2ccc(NC(=O)[C@H](Cc3ccccc3Cl)NC(=O)C(F)(F)c3ccccc3)cc2)C(=O)NCCCCCCCCN1 [Compound 597]
41 | < 100 | O=C1CC2(CCCC2)CC(=O)N[C@H](Cc2ccc(NC(=O)[C@H](Cc3ccccc3Cl)NC(=O)Cc3ccc(CO)cc3)cc2)C(=O)NCCCCN1 [Compound 393]
42 | < 100 | O=C1CC2(CCCC2)CC(=O)N[C@H](Cc2ccc(NC(=O)[C@H](Cc3ccccc3Cl)NC(=O)[C@H](O)c3ccccc3)cc2)C(=O)NCCOCCOCCN1 [Compound 545]
43 | 100 to 1000 | O=C1CC2(CCCC2)CC(=O)N[C@H](Cc2ccc(NC(=O)[C@@H](NC(=O)Cc3ccccc3)C3CCCCC3)cc2)C(=O)NCCCCCCCCCN1 [Compound 350]
44 | < 100 | O=C1CC2(CCCC2)CC(=O)N[C@H](Cc2ccc(NC(=O)[C@H](Cc3ccccc3Cl)NC(=O)Cc3ccccc3)cc2)C(=O)NCCCCCN1 [Compound 392]
45 | < 100 | C[C@H]1NC(=O)[C@@H](Cc2ccc(NC(=O)[C@H](Cc3ccccc3Cl)NC(=O)Cc3cccc(O)c3)cc2)NC(=O)CC2(CCCC2)CC(=O)NCCCCCNC1=O [Compound 483]
46 | < 100 | CC(=O)N[C@@H](Cc1ccccc1Cl)C(=O)Nc1ccc(C[C@H]2NC(=O)CC3(CCCC3)CC(=O)NCCCCCNC(=O)[C@@H](C)NC2=O)cc1 [Compound 468]
47 | < 100 | O=C1CNC(=O)[C@@H](Cc2ccc(NC(=O)[C@H](Cc3ccccc3Cl)NC(=O)C(F)F)cc2)NC(=O)CC2(CCCC2)CC(=O)OCCCCCN1 [Compound 675]
48 | < 100 | O=C1CC2(CCCC2)CC(=O)N[C@H](Cc2ccc(NC(=O)[C@H](Cc3ccccc3Cl)NC(=O)C(=O)c3ccccc3)cc2)C(=O)NCCOCCOCCN1 [Compound 548]

Reference: patent US9284283B2, “Macrocyclic compounds for modulating IL-17” (ENSEMBLE THERAPEUTICS CORPORATION, priority 2012, dated 2016)
